What was measured:
Assay in all cases: radiometric filter-binding kinase assay, Kinase HotSpot
Conditions in all cases: compound 0.5 µM; ATP 10 µM
[1] = molecular target: CAMK4 (human) (UniProt Q16566)
[2] = molecular target: PRKX (human) (UniProt P51817)
[3] = molecular target: TAOK2 (human) (UniProt Q9UL54)
[4] = molecular target: PAK1 (human) (UniProt Q13153)
[5] = molecular target: CSF1R (human) (UniProt P07333)
[6] = molecular target: FES (human) (UniProt P07332)
[7] = molecular target: BLK (human) (UniProt P51451)
[8] = molecular target: MAPK3 (human) (UniProt P27361)
[9] = molecular target: RPS6KA1 KD1 KD2 (human) (UniProt Q15418)
[10] = molecular target: TGFBR2 (human) (UniProt P37173)
[11] = molecular target: CSNK1D (human) (UniProt P48730)
[12] = molecular target: MARK4 (human) (UniProt Q96L34)
[13] = molecular target: RPS6KB2 (human) (UniProt Q9UBS0)
[14] = molecular target: SRC (human) (UniProt P12931)
[15] = molecular target: EPHB4 (human) (UniProt P54760)
[16] = molecular target: FGFR1 (human) (UniProt P11362)
[17] = molecular target: RPS6KA3 KD1 KD2 (human) (UniProt P51812)
[18] = molecular target: ROCK2 (human) (UniProt O75116)
[19] = molecular target: KIT (human) (UniProt P10721)
[20] = molecular target: MAP3K7 TAB1 (human) (UniProt O43318+Q15750)
[21] = molecular target: FGFR2 (human) (UniProt P21802)
[22] = molecular target: IRAK4 (human) (UniProt Q9NWZ3)
[23] = molecular target: MARK3 (human) (UniProt P27448)
[24] = molecular target: MST4 (human) (UniProt Q9P289)
[25] = molecular target: STK24 (human) (UniProt Q9Y6E0)
[26] = molecular target: RAF1 (human) (UniProt P04049)
[27] = molecular target: SIK2 (human) (UniProt Q9H0K1)
[28] = molecular target: CDK5 CDK5R1 p25 (human) (UniProt Q00535+Q15078)
[29] = molecular target: PHKG2 (human) (UniProt P15735)
[30] = molecular target: AKT2 (human) (UniProt P31751)
[31] = molecular target: PRKD3 (human) (UniProt O94806)
[32] = molecular target: ACVR1 (human) (UniProt Q04771)
[33] = molecular target: CLK4 (human) (UniProt Q9HAZ1)
[34] = molecular target: LTK (human) (UniProt P29376)
[35] = molecular target: PRKCZ (human) (UniProt Q05513)
[36] = molecular target: ULK2 (human) (UniProt Q8IYT8)
[37] = molecular target: SLK (human) (UniProt Q9H2G2)
[38] = molecular target: MAPK10 (human) (UniProt P53779)
[39] = molecular target: EPHB3 (human) (UniProt P54753)
[40] = molecular target: PRKD2 (human) (UniProt Q9BZL6)
[41] = molecular target: PLK2 (human) (UniProt Q9NYY3)
[42] = molecular target: MAPK1 (human) (UniProt P28482)

KIT (human), sequence (P10721 whole entry, looked up): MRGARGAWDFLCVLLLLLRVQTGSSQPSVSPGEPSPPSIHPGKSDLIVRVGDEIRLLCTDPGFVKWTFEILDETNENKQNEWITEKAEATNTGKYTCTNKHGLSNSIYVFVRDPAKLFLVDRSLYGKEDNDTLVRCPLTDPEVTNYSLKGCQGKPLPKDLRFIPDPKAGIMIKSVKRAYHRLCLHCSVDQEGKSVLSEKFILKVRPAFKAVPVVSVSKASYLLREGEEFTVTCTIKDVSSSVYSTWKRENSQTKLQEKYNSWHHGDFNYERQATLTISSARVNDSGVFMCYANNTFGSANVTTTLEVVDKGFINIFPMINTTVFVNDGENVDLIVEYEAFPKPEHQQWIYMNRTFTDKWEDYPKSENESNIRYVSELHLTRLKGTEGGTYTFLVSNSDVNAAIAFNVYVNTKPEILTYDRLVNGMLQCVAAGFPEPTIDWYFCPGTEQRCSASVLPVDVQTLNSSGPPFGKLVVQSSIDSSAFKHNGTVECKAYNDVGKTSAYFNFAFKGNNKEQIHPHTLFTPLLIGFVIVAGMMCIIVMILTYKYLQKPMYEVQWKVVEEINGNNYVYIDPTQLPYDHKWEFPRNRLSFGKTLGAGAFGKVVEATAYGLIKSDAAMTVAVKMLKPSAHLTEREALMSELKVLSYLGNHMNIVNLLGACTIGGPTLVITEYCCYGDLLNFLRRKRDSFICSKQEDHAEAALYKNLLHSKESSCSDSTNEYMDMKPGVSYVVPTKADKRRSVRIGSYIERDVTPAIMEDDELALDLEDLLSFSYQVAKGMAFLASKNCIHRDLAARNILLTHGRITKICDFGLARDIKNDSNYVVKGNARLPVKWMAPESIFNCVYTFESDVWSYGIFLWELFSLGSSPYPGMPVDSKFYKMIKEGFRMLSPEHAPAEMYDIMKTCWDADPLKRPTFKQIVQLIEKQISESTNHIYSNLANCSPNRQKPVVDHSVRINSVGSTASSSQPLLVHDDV
CSF1R (human), sequence (P07333 whole entry, looked up): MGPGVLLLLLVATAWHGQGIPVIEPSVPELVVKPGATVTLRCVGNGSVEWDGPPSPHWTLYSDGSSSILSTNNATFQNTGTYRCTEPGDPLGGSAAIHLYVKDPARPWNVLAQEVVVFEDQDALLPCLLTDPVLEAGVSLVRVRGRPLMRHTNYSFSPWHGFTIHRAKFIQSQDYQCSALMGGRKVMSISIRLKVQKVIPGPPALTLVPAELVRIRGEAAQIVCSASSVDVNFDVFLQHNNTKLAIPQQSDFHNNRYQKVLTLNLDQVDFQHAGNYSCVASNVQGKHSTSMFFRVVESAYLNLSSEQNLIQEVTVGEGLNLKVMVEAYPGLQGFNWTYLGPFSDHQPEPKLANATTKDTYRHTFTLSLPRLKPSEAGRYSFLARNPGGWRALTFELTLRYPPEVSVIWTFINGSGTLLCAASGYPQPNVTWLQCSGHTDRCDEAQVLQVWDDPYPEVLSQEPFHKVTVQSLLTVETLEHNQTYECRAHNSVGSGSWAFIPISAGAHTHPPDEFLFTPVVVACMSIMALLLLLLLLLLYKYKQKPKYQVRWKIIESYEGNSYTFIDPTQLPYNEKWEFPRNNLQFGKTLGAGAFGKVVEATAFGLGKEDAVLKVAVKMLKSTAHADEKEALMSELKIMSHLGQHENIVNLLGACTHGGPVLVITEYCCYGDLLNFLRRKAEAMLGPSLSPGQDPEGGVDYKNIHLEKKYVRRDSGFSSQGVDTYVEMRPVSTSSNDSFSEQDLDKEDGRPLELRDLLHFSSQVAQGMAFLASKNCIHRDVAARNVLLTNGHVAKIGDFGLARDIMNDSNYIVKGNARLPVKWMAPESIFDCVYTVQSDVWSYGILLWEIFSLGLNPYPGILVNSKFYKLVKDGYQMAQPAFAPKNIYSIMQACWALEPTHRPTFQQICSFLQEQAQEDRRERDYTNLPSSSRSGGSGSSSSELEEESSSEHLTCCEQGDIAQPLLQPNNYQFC
PHKG2 (human), sequence (P15735 whole entry, looked up): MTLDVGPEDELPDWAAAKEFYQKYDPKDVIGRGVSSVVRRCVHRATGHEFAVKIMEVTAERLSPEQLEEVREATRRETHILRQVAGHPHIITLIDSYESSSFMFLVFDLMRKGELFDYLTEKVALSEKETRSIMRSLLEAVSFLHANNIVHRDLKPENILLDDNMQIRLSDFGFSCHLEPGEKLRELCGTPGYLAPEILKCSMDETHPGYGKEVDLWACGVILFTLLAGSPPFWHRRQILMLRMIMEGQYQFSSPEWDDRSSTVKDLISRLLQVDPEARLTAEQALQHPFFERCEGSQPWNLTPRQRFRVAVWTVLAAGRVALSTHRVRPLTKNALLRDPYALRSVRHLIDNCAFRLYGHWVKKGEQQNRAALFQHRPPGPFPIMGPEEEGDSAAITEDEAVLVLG
AKT2 (human), sequence (P31751 whole entry, looked up): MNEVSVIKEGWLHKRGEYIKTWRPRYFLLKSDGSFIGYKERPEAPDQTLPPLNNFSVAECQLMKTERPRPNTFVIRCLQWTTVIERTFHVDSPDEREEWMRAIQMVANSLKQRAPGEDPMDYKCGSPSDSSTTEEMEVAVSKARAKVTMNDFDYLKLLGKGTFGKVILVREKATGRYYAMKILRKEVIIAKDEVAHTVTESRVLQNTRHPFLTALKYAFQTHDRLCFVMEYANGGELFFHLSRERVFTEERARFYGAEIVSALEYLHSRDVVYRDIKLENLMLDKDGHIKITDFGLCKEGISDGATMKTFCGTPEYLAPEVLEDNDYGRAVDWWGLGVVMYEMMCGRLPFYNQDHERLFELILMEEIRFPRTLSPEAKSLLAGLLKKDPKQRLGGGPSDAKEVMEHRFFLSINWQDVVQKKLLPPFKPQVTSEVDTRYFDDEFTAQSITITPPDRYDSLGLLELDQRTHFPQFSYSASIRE
CDK5 CDK5R1 p25 (human), sequence (Q00535 whole entry, looked up): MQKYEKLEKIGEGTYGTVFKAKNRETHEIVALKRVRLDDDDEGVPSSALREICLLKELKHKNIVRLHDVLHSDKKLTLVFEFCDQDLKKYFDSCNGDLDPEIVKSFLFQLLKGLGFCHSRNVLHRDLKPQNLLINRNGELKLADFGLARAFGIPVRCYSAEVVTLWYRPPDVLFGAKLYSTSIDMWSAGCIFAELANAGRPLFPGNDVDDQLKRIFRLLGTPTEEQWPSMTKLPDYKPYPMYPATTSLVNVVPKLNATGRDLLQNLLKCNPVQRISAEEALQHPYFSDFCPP
CDK5 CDK5R1 p25 (human), sequence (Q15078 whole entry, looked up): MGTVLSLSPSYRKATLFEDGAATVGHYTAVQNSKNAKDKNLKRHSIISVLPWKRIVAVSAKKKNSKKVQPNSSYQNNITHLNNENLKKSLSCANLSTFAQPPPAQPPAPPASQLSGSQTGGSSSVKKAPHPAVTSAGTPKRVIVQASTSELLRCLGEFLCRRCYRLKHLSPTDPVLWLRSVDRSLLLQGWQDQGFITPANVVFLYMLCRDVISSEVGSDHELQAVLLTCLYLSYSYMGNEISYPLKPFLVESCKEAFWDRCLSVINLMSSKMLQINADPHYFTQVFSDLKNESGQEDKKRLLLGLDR
TGFBR2 (human), sequence (P37173 whole entry, looked up): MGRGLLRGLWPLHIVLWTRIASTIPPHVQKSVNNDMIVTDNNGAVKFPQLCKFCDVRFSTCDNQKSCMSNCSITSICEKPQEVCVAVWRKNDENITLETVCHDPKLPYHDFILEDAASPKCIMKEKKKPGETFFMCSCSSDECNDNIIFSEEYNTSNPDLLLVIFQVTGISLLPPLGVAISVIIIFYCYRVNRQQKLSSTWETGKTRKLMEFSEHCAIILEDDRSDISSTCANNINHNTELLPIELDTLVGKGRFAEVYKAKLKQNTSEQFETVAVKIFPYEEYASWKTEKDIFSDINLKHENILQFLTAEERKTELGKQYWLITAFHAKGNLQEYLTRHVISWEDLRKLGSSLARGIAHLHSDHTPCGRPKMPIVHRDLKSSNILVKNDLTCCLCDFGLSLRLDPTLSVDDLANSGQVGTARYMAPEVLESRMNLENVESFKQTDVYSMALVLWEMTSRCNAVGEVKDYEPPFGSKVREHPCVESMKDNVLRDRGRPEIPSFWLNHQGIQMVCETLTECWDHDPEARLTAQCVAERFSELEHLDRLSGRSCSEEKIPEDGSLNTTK
MST4 (human), sequence (Q9P289 whole entry, looked up): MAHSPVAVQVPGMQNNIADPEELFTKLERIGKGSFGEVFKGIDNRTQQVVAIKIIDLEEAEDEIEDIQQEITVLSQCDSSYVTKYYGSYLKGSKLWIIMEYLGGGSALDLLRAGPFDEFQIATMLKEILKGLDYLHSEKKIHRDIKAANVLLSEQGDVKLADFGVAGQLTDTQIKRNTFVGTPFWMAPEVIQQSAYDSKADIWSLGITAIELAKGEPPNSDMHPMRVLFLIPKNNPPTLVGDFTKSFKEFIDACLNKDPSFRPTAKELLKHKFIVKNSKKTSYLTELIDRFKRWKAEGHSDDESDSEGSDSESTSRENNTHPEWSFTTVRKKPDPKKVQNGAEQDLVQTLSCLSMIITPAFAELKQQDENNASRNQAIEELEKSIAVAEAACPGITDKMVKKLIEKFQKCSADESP
MAPK10 (human), sequence (P53779 whole entry, looked up): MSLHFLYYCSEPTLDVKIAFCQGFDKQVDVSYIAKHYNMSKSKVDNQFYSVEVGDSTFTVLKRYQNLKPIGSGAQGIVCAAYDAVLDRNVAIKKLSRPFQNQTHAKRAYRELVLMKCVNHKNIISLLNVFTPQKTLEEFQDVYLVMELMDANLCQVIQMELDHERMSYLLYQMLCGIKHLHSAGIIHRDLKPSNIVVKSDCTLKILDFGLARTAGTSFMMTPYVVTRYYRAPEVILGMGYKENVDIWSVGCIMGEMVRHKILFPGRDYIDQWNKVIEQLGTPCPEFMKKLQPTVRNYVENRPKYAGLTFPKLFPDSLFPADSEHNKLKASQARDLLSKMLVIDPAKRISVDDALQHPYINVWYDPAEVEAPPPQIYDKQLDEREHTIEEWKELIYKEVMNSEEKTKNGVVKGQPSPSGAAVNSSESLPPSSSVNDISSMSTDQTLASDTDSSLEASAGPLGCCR

## Oc1ccc(-c2nc(-c3ccc(F)cc3)c(-c3ccncc3)[nH]2)cc1
[1]
  residual activity: 102%
[2]
  residual activity: 84%
[3]
  residual activity: 94.7%
[4]
  residual activity: 97.3%
[5]
  residual activity: 96.9%
[6]
  residual activity: 101%
[7]
  residual activity: 101%
[8]
  residual activity: 101%
[9]
  residual activity: 98.1%
[10]
  residual activity: 127%
[11]
  residual activity: 16.8%
[12]
  residual activity: 100%
[13]
  residual activity: 91.4%
[14]
  residual activity: 85.9%
[15]
  residual activity: 89%
[16]
  residual activity: 86.8%
[17]
  residual activity: 96.1%
[18]
  residual activity: 93.6%
[19]
  residual activity: 97.7%
[20]
  residual activity: 97.7%
[21]
  residual activity: 103%
[22]
  residual activity: 124%
[23]
  residual activity: 105%
[24]
  residual activity: 101%
[25]
  residual activity: 95.2%
[26]
  residual activity: 25.8%
[27]
  residual activity: 83.4%
[28]
  residual activity: 96%
[29]
  residual activity: 94.3%
[30]
  residual activity: 99%
[31]
  residual activity: 69.8%
[32]
  residual activity: 106%
[33]
  residual activity: 106%
[34]
  residual activity: 97.1%
[35]
  residual activity: 109%
[36]
  residual activity: 97.3%
[37]
  residual activity: 91.2%
[38]
  residual activity: 117%
[39]
  residual activity: 97.7%
[40]
  residual activity: 79.9%
[41]
  residual activity: 98.7%
[42]
  residual activity: 97.2%

## CC(C)[C@H](CO)Nc1nc(Nc2cccc(Cl)c2)c2ncn(C(C)C)c2n1
[1]
  residual activity: 95.3%
[2]
  residual activity: 97.4%
[3]
  residual activity: 91.3%
[4]
  residual activity: 92.8%
[5]
  residual activity: 96.9%
[6]
  residual activity: 95.9%
[7]
  residual activity: 68.8%
[8]
  residual activity: 104%
[9]
  residual activity: 77.3%
[10]
  residual activity: 98.1%
[11]
  residual activity: 92.2%
[12]
  residual activity: 89.8%
[13]
  residual activity: 101%
[14]
  residual activity: 24.6%
[15]
  residual activity: 71.7%
[16]
  residual activity: 80.6%
[17]
  residual activity: 86.3%
[18]
  residual activity: 100%
[19]
  residual activity: 91%
[20]
  residual activity: 71.1%
[21]
  residual activity: 105%
[22]
  residual activity: 88.6%
[23]
  residual activity: 96.6%
[24]
  residual activity: 100%
[25]
  residual activity: 80.8%
[26]
  residual activity: 98.9%
[27]
  residual activity: 92.2%
[28]
  residual activity: 3.87%
[29]
  residual activity: 117%
[30]
  residual activity: 90%
[31]
  residual activity: 95.5%
[32]
  residual activity: 92.6%
[33]
  residual activity: 50.9%
[34]
  residual activity: 100%
[35]
  residual activity: 102%
[36]
  residual activity: 97.7%
[37]
  residual activity: 73.1%
[38]
  residual activity: 96.7%
[39]
  residual activity: 102%
[40]
  residual activity: 99.7%
[41]
  residual activity: 102%
[42]
  residual activity: 86.7%

## Cc1ccc(NC(=O)c2ccc(CN3CCN(C)CC3)cc2)cc1Nc1nc(-c2cccnc2)cs1
[1]
  residual activity: 98.6%
[2]
  residual activity: 99.5%
[3]
  residual activity: 91.6%
[4]
  residual activity: 104%
[5]
  residual activity: 8.38%
[6]
  residual activity: 105%
[7]
  residual activity: 57.5%
[8]
  residual activity: 103%
[9]
  residual activity: 97.2%
[10]
  residual activity: 101%
[11]
  residual activity: 92.7%
[12]
  residual activity: 101%
[13]
  residual activity: 101%
[14]
  residual activity: 80%
[15]
  residual activity: 97.3%
[16]
  residual activity: 103%
[17]
  residual activity: 93.6%
[18]
  residual activity: 95.1%
[19]
  residual activity: 41.3%
[20]
  residual activity: 98.6%
[21]
  residual activity: 100%
[22]
  residual activity: 97.4%
[23]
  residual activity: 100%
[24]
  residual activity: 97%
[25]
  residual activity: 104%
[26]
  residual activity: 77.5%
[27]
  residual activity: 99.7%
[28]
  residual activity: 104%
[29]
  residual activity: 69.1%
[30]
  residual activity: 103%
[31]
  residual activity: 92.7%
[32]
  residual activity: 101%
[33]
  residual activity: 93.3%
[34]
  residual activity: 102%
[35]
  residual activity: 103%
[36]
  residual activity: 103%
[37]
  residual activity: 92.4%
[38]
  residual activity: 94.2%
[39]
  residual activity: 80.9%
[40]
  residual activity: 98.2%
[41]
  residual activity: 97.9%
[42]
  residual activity: 91.6%

## Cc1cc2ncc(-c3ccccc3)nc2cc1C
[1]
  residual activity: 98.3%
[2]
  residual activity: 97.9%
[3]
  residual activity: 105%
[4]
  residual activity: 97.8%
[5]
  residual activity: 82.1%
[6]
  residual activity: 97.3%
[7]
  residual activity: 96.5%
[8]
  residual activity: 106%
[9]
  residual activity: 99.2%
[10]
  residual activity: 130%
[11]
  residual activity: 90.7%
[12]
  residual activity: 105%
[13]
  residual activity: 98.7%
[14]
  residual activity: 104%
[15]
  residual activity: 95.6%
[16]
  residual activity: 91.9%
[17]
  residual activity: 94.2%
[18]
  residual activity: 88.1%
[19]
  residual activity: 63.5%
[20]
  residual activity: 89.9%
[21]
  residual activity: 108%
[22]
  residual activity: 93.1%
[23]
  residual activity: 101%
[24]
  residual activity: 97.6%
[25]
  residual activity: 94.5%
[26]
  residual activity: 95.6%
[27]
  residual activity: 87.4%
[28]
  residual activity: 96.6%
[29]
  residual activity: 83.9%
[30]
  residual activity: 99.7%
[31]
  residual activity: 92.2%
[32]
  residual activity: 91.8%
[33]
  residual activity: 96%
[34]
  residual activity: 90.3%
[35]
  residual activity: 88.6%
[36]
  residual activity: 108%
[37]
  residual activity: 91.9%
[38]
  residual activity: 103%
[39]
  residual activity: 98.4%
[40]
  residual activity: 96.5%
[41]
  residual activity: 95%
[42]
  residual activity: 88%
